Reference: patent publication US6903086B2, “Alkoxycarbonylamino benzoic acid or alkoxycarbonylamino tetrazolyl phenyl derivatives as IP antagonists” (SYNTEX (U.S.A.) LLC, priority 2001, dated 2005)

First: O=C(Nc1ccc(-c2cccnc2)cc1C(=O)O)OCc1cc2cc(-c3ccc(F)cc3)ccc2o1 [compound 16, 2-[5-(4-fluoro-phenyl)-benzofuran-2-ylmethoxycarbonylamino]-5-pyridin-3-yl-benzoic acid]
Second: O=C(Nc1ccc(-c2ccc(F)cc2)cc1C(=O)O)OCc1cc2cc(-c3cccnc3)ccc2o1 [compound 34, 4′-fluoro-4-(5-pyridin-3-yl-benzofuran-2-ylmethoxycarbonylamino)-biphenyl-3-carboxylic acid]
The melting point of the first is lower: 225.7 to 229.3 °C for the first, 237.1 to 237.5 °C for the second.

First: CS(=O)(=O)c1ccc(NC(=O)OCc2cc3cc(-c4ccccc4)ccc3o2)c(C(=O)O)c1 [compound 20, 5-methanesulfonyl-2-(5-phenyl-benzofuran-2-ylmethoxycarbonylamino)-benzoic acid]
Second: O=C(Nc1ccc(Br)cc1C(=O)O)OCc1cc2cc(-c3ccccc3)ccc2o1 [compound 19, 5-bromo-2-(5-phenyl-benzofuran-2-ylmethoxycarbonylamino)-benzoic acid]
The melting point of the first is higher: 234 to 235 °C for the first, 221.2 to 222 °C for the second.

First: O=C(Nc1ccc(Cl)cc1C(=O)O)OCc1cc2cc(-c3ccc(F)cc3)ccc2o1 [compound 24, 5-chloro-2-[5-(4-fluoro-phenyl)-benzofuran-2-ylmethoxycarbonylamino]-benzoic acid]
Second: O=C(Nc1ccc(F)cc1C(=O)O)OCc1cc2cc(-c3ccc(F)cc3)ccc2o1 [compound 23, 5-fluoro-2-[5-(4-fluoro-phenyl)-benzofuran-2-ylmethoxycarbonylamino]-benzoic acid]
The melting point of the first is higher: 216.7 to 217.3 °C for the first, 210 to 211.9 °C for the second.

First: O=C(Nc1cccc(Cl)c1C(=O)O)OCCOc1ccc(-c2ccccc2)cc1 [compound 801, 2-[2-(biphenyl-4-yloxy)-ethoxycarbonylamino]-6-chloro-benzoic acid]
Second: Cc1ccc(NC(=O)OCCOc2ccc(-c3ccccc3)cc2)c(C(=O)O)c1 [compound 802, 2-[2-(biphenyl-4-yloxy)-ethoxycarbonylamino]-5-methyl-benzoic acid]
The melting point of the first is lower: 157.5 to 158.9 °C for the first, 175.5 to 177.8 °C for the second.

Compared with `O=C(Nc1ccc(-c2ccc(F)cc2)cc1C(=O)O)OCc1cc2cc(-c3ccsc3)ccc2o1` [compound 32, 4′-fluoro-4-(5-thiophen-3-yl-benzofuran-2-ylmethoxycarbonylamino)-biphenyl-3-carboxylic acid], `O=C(Nc1ccc(-c2ccsc2)cc1C(=O)O)OCc1cc2cc(-c3ccccc3)ccc2o1` [compound 13, 2-(5-phenyl-benzofuran-2-ylmethoxycarbonylamino)-5-thiophen-3-yl-benzoic acid] is higher in melting point: 213.2 to 215.1 °C for the first, 229.5 to 230 °C for the second.

First: O=C(Nc1cccc(Cl)c1C(=O)O)OCc1cc2cc(-c3cccnc3)ccc2o1 [compound 36, 2-chloro-6-(5-pyridin-3-yl-benzofuran-2-ylmethoxycarbonylamino)-benzoic acid]
Second: O=C(Nc1cccc(Cl)c1C(=O)O)OCc1cc2cc(-c3cncnc3)ccc2o1 [compound 37, 2-chloro-6-(5-pyrimidin-5-yl-benzofuran-2-ylmethoxycarbonylamino)-benzoic acid]
The melting point of the first is lower: 172 to 174 °C for the first, 192.8 to 194.3 °C for the second.

Compared with `O=C(Nc1cccc(Cl)c1C(=O)O)OCc1cc2cc(-c3ccc(F)cc3)ccc2o1` [compound 25, 2-chloro-6-[5-(4-fluoro-phenyl)-benzofuran-2-ylmethoxycarbonylamino]-benzoic acid], `Nc1cccc(NC(=O)OCc2cc3cc(-c4ccc(F)cc4)ccc3o2)c1C(=O)O` [compound 701, 2-amino-6-[5-(4-fluorophenyl)benzofuran-2-ylmethoxycarbonylamino]benzoic acid] is lower in melting point: 216.7 to 217.3 °C for the first, 176.4 to 178.5 °C for the second.

First: O=C(Nc1cccc(Cl)c1C(=O)O)OCc1cc2cc(-c3ccccn3)ccc2o1 [compound 38, 2-chloro-6-(5-pyridin-2-yl-benzofuran-2-ylmethoxycarbonylamino)-benzoic acid]
Second: O=C(Nc1cccc(Cl)c1C(=O)O)OCc1cc2cc(-c3cnccn3)ccc2o1 [compound 39, 2-chloro-6-(5-pyrazin-2-yl-benzofuran-2-ylmethoxycarbonylamino)-benzoic acid]
The melting point of the first is lower: 134.8 to 144.1 °C for the first, 212 to 214.1 °C for the second.

Compared with `O=C(O)Cc1ccccc1NC(=O)OCc1cc2cc(-c3ccccc3)ccc2o1` [compound 42, [2-(5-phenyl-benzofuran-2-ylmethoxycarbonylamino)-phenyl]-acetic acid], `O=C(Nc1ccccc1C(=O)O)OCc1cc2cc(-c3ccccc3)ccc2o1` [compound 17, 2-(5-phenyl-benzofuran-2-ylmethoxycarbonylamino)-benzoic acid] is higher in melting point: 169.5 to 170.9 °C for the first, 203.6 to 203.8 °C for the second.

First: O=C(Nc1cc2ccccc2cc1C(=O)O)OCc1cc2cc(-c3ccccc3)ccc2o1 [compound 18, 3-(5-phenyl-benzofuran-2-ylmethoxycarbonylamino)-naphthalene-2-carboxylic acid]
Second: O=C(Nc1ccc2ccccc2c1C(=O)O)OCc1cc2cc(-c3ccccc3)ccc2o1 [compound 201, 2-(5-phenyl-benzofuran-2-ylmethoxycarbonylamino)-naphthalene-1-carboxylic acid]
The melting point of the first is higher: 225.6 to 225.8 °C for the first, 174.5 to 177.2 °C for the second.

`O=C(Nc1ccc(-c2ccccc2)cc1-c1nnn[nH]1)OCc1cc2cc(-c3ccc(F)cc3)ccc2o1` [compound 509, [3-(1H-tetrazol-5-yl)-biphenyl-4-yl]-carbamic acid 5-(4-fluoro-phenyl)-benzofuran-2-ylmethyl ester] and `O=C(Nc1ccc(-c2ccc(F)cc2)cc1-c1nnn[nH]1)OCc1cc2cc(-c3ccc(F)cc3)ccc2o1` [compound 505, [4′-fluoro-3-(1H-tetrazol-5-yl)-biphenyl-4-yl]-carbamic acid 5-(4-fluoro-phenyl)-benzofuran-2-ylmethyl ester] cannot be ordered by melting point: 192 to 230 °C for the first, 209 to 211 °C for the second.

First: O=C(Nc1ccc(Br)cc1-c1nnn[nH]1)OCc1cc2cc(-c3ccccc3)ccc2o1 [compound 507, [4-bromo-2-(1H-tetrazol-5-yl)-phenyl]-carbamic acid 5-phenyl-benzofuran-2-ylmethyl ester]
Second: O=C(Nc1ccc(Br)cc1-c1nnn[nH]1)OCc1cc2cc(-c3ccc(F)cc3)ccc2o1 [compound 504, [4-bromo-2-(1H-tetrazol-5-yl)-phenyl]-carbamic acid 5-(4-fluoro-phenyl)-benzofuran-2-ylmethyl ester]
The melting point of the first is higher: 166 to 190 °C for the first, 121 to 138 °C for the second.

Compared with `N#Cc1ccc(NC(=O)OCc2cc3cc(-c4ccccc4)ccc3o2)c(C(=O)O)c1` [compound 21, 5-cyano-2-(5-phenyl-benzofuran-2-ylmethoxycarbonylamino)-benzoic acid], `O=C(Nc1ccc(Br)cc1C(=O)O)OCc1cc2cc(-c3ccc(F)cc3)ccc2o1` [compound 26, 5-bromo-2-[5-(4-fluoro-phenyl)-benzofuran-2-ylmethoxycarbonylamino]-benzoic acid] is higher in melting point: 213.9 to 214.5 °C for the first, 220.3 to 220.6 °C for the second.

Compared with `O=C(Nc1ccc(-c2ccc(F)cc2)cc1C(=O)O)OCc1cc2cc(-c3ccc(F)cc3)ccc2o1` [compound 14, 4′-fluoro-4-[5-(4-fluoro-phenyl)-benzofuran-2-ylmethoxycarbonylamino]-biphenyl-3-carboxylic acid], `O=C(Nc1ccc2ccccc2c1C(=O)O)OCc1cc2cc(-c3ccc(F)cc3)ccc2o1` [compound 202, 2-[5-(4-fluoro-phenyl)-benzofuran-2-ylmethoxycarbonylamino]-naphthalene-1-carboxylic acid] is lower in melting point: 235.1 to 235.7 °C for the first, 204.5 to 205 °C for the second.

First: COc1cccc(NC(=O)OCc2cc3cc(-c4ccc(F)cc4)ccc3o2)c1C(=O)O [compound 29, 2-[5-(4-fluoro-phenyl)-benzofuran-2-ylmethoxycarbonylamino]-6-methoxy-benzoic acid]
Second: Cc1cccc(NC(=O)OCc2cc3cc(-c4ccc(F)cc4)ccc3o2)c1C(=O)O [compound 27, 2-[5-(4-fluoro-phenyl)-benzofuran-2-ylmethoxycarbonylamino]-6-methyl-benzoic acid]
The melting point of the first is lower: 160.5 to 164.3 °C for the first, 176.1 to 178.8 °C for the second.

Compared with `Cc1ccc(NC(=O)OCc2cc3cc(-c4ccsc4)ccc3o2)c(C(=O)O)c1` [compound 31, 5-methyl-2-(5-thiophen-3-yl-benzofuran-2-ylmethoxycarbonylamino)-benzoic acid], `CC(C)Oc1ccc(NC(=O)OCc2cc3cc(-c4ccc(F)cc4)ccc3o2)c(C(=O)O)c1` [compound 301, 2-[5-(4-fluoro-phenyl)-benzofuran-2-ylmethoxycarbonylamino]-5-isopropoxy-benzoic acid] is lower in melting point: 213.2 to 215.1 °C for the first, 195 to 196.5 °C for the second.

First: O=C(Nc1c(Cl)cc(Cl)cc1C(=O)O)OCc1cc2cc(-c3ccc(F)cc3)ccc2o1 [compound 22, 3,5-dichloro-2-[5-(4-fluoro-phenyl)-benzofuran-2-ylmethoxycarbonylamino]-benzoic acid]
Second: O=C(Nc1cccc([N+](=O)[O-])c1C(=O)O)OCc1cc2cc(-c3ccc(F)cc3)ccc2o1 [compound 30, 2-[5-(4-fluoro-phenyl)-benzofuran-2-ylmethoxycarbonylamino]-6-nitro-benzoic acid]
The melting point of the first is lower: 177.7 to 178.5 °C for the first, 191.5 to 191.9 °C for the second.

First: Cc1cc(Br)ccc1NC(=O)OCc1cc2cc(-c3cccnc3)ccc2o1 [compound 41, (4-bromo-2-methyl-phenyl)-carbamic acid 5-pyridin-3-yl-benzofuran-2-ylmethyl ester]
Second: O=C(Nc1ccc(-c2ccccc2)cc1-c1nnn[nH]1)OCc1cc2cc(-c3ccccc3)ccc2o1 [compound 501]
The melting point of the first is higher: 213.9 to 214.5 °C for the first, 180 to 183 °C for the second.

Compound `O=C(Nc1ccc(-c2ccccc2)cc1-c1nnn[nH]1)OCc1cc2cc(-c3cc(Cl)cc(Cl)c3)ccc2o1` [compound 502, [3-(1H-tetrazol-5-yl)-biphenyl-4-yl]-carbamic acid 5-(3,5-dichloro-phenyl)-benzofuran-2-ylmethyl ester] has a melting point of 127.5 to 134 °C.

With `N#Cc1cccc(NC(=O)OCc2cc3cc(-c4ccc(F)cc4)ccc3o2)c1C(=O)O` [compound 33, 2-cyano-6-[5-(4-fluoro-phenyl)-benzofuran-2-ylmethoxycarbonylamino]-benzoic acid] the melting point was 150 °C (dec.).
